Earlier results on 2 compounds are cited in patent US11938119B2, “Cannabis production systems and methods” ([…], LLC, priority 2017, dated 2024).

The conditions of this series: stated "in embodiments"; no solvent system or method printed.

Regarding `C=C(C)[C@@H]1CCC(C)=C[C@H]1c1c(O)cc(CCCCC)cc1O` [cannabidiol], the partition coefficient is 5.79.

As for `CCCCCc1cc(O)c2c(c1)OC(C)(C)[C@@H]1CCC(C)=C[C@@H]21` [tetrahydrocannabinol], the partition coefficient was 6.99.
